We go through seven compounds from US11136292B2, “Plant growth regulator compounds” (SYNGENTA PARTICIPATIONS AG, priority 2016, dated 2021).

The subject of the test is NK Falkone 2015 corn seeds. The experiment in a line: Corn seed germination under cold stress (Example B1). It counts as in vivo. To be noted: Zea mays, cold stress 15° C.; for change in vivo at 2 µM: Rate 2 μM; for change in vivo at 10 µM: Rate 10 μM; for change in vivo at 50 µM: Rate 50 μM; for change in vivo at 250 µM: Rate 250 μM. As for the experimental part: The effect of compounds of formula (I) on the germination of NK Falkone 2015 corn seeds under cold stress was evaluated as follows. NK Falkone corn seeds were sorted by size using 2 sieves, one excluding very big seeds and the other with round holes of 8 to 9 mm diameter. The seeds retained by the latter sieve were used for the germination test. The corn seeds were placed in 24 well plates (each plate was considered as one experimental unit or replicate). Germination was initiated by the addition of 250 μl of distilled water containing 0.5% DMSO per well as a means for compound solubilization. 8 replicates (ie, 8 plates) were used for each treatment characterization. Plates were sealed using seal foil (Polyolefin Art. Nr. 900320) from HJ-BIOANALYTIK. All plates were placed horizontally on trolleys in a climatic chamber at 15° C. The experiment was laid out in a completely randomized design in climatic chamber with 75% Relative Humidity. Foils were pierced, one hole per well using a syringe after 72 hours for experiments performed at 15° C.
Germination was followed over time by taking photographs at different time points. Image analysis was performed automatically with a macro which was developed using the Image J software. A dynamic analysis of germination was carried out by fitting a logistic curve. Three parameters were calculated from the logistic curve: the T50; the slope and the plateau. All three parameters have a high agronomical relevance and are key requirements to ensure a good early crop-establishment. All the values are expressed as percentages compared to an untreated control. All the three parameters are calculated considering 8 replicates and the kinetic parameters are separately determined for each germination curve. Data in bold indicate germination enhancing statistically significant differences between treated seeds and untreated control (p<0.05). The T50 corresponds to the time needed for half of the seed population to germinate. Higher negative %-values indicate faster germination. The slope indicates how synchronous the germination of the seed population is. Positive values indicate steeper curve; the steeper the curve, the better and more uniform the germination is.

The mark [1] stands for this setting: slope of logistic germination curve, read-out: Slope (% vs control).
The mark [2] stands for this setting: time for half of seeds to germinate, control T50 = 110 hours, read-out: T50 (% vs control).

Structures are written as SMILES. Where two headings read alike, the source gives them in different places.

Consider `CCOC(=O)/C(=C/OC1C=C(C)C(=O)O1)C1CCOc2ccccc21` (centres unmarked) [Compound I-90], for which, under setting [1], the change in vivo at 2 µM is -10%, the change in vivo at 10 µM was -0.32%, the change in vivo at 50 µM worked out at 4.6% and the change in vivo at 250 µM is 83.6%. For the same compound, under setting [2], the change in vivo at 2 µM stood at 3.2%, the change in vivo at 10 µM amounted to 2.8%, the change in vivo at 50 µM came to 0.45% and the change in vivo at 250 µM is -6.7%.
For the compound `CCOC(=O)/C(=C/OC1OC(=O)C(C)=C1C)C1CCOc2ccccc21` (centres unmarked) [Compound I-91], under setting [1], the change in vivo at 2 µM is -15.3%, the change in vivo at 10 µM is -5.4%, the change in vivo at 50 µM worked out at 18.8% and the change in vivo at 250 µM worked out at 67.4%. Under setting [2], the change in vivo at 2 µM came to 2.5%, the change in vivo at 10 µM is 2.7%, the change in vivo at 50 µM is -1.5% and the change in vivo at 250 µM is -6.1%.
Take `CCOC(=O)/C(=C/OC1OC(=O)C(C)=C1C)C1COc2ccccc21` (centres unmarked) [Compound I-95]: under setting [1], the change in vivo at 2 µM is -2%, the change in vivo at 10 µM is -13.9%, the change in vivo at 50 µM came to 2.7% and the change in vivo at 250 µM was determined as 81.5%. Under setting [2], the change in vivo at 2 µM is 1.6%, the change in vivo at 10 µM came to 1.6%, the change in vivo at 50 µM was found to be 0.6% and the change in vivo at 250 µM was -6.7%.
In the case of `CC1=CC(O/C=C2/C(=O)OC3c4ccccc4CC23)OC1=O` (centres unmarked) [Prior art 1], under setting [1], the change in vivo at 2 µM is -0.7%, the change in vivo at 10 µM is -11.3%, the change in vivo at 50 µM was found to be 6.2% and the change in vivo at 250 µM came out at 36.3%. For the same compound, under setting [2], the change in vivo at 2 µM was -1.5%, the change in vivo at 10 µM was -0.1%, the change in vivo at 50 µM is -1.85% and the change in vivo at 250 µM is -3.4%.
Regarding `CC1=C(C)C(O/C=C2/C(=O)OC3c4ccccc4CC23)OC1=O` (centres unmarked) [Prior art 2], under setting [1], the change in vivo at 2 µM is -1.3%, the change in vivo at 10 µM was found to be 1.4%, the change in vivo at 50 µM came to 9.6% and the change in vivo at 250 µM turned out to be 15.8%. Further, under setting [2], the change in vivo at 2 µM was -1.5%, the change in vivo at 10 µM came out at 1.7%, the change in vivo at 50 µM is -1.6% and the change in vivo at 250 µM is -2.1%.
As to `CC1=CC(O/C=C2/C(=O)OC3Cc4ccccc4C23)OC1=O` (centres unmarked) [Prior art 3], under setting [1], the change in vivo at 2 µM was -0.7%, the change in vivo at 10 µM was 2.2%, the change in vivo at 50 µM is 4% and the change in vivo at 250 µM was determined as 14.1%. Under setting [2], the change in vivo at 2 µM is 1.6%, the change in vivo at 10 µM amounted to 0%, the change in vivo at 50 µM is -0.8% and the change in vivo at 250 µM is -0.5%.
As to `COC(=O)/C(=C/OC1C=C(C)C(=O)O1)c1ccccc1` (centres unmarked) [Prior art 4], under setting [1], the change in vivo at 2 µM was -7.7%, the change in vivo at 10 µM is 14.9%, the change in vivo at 50 µM is -11.4% and the change in vivo at 250 µM was 4.1%. Further, under setting [2], the change in vivo at 2 µM worked out at 1.2%, the change in vivo at 10 µM is -3.4%, the change in vivo at 50 µM amounted to 2.4% and the change in vivo at 250 µM was found to be 0.1%.
